Laboratory results from patent publication US10246453B2, “Benzenesulfonamide compounds and their use as therapeutic agents” (Xenon Pharmaceuticals Inc., priority 2016, dated 2019).
Where a name gives a salt, the structure may show the parent alone.

What was measured:
NaV1.1 [1] = biological target: T1, NaV1.1 (Homo sapiens (Human), UniProt P35498); test: Sodium Influx Assay (Flux), NaV1.1; format: cell-based; conditions: Trex HEK293 cells, ANG2 dye; arithmetic mean
NaV1.6 [2] = biological target: T2, NaV1.6 (Homo sapiens (Human), UniProt Q9UQD0); test: Electrophysiological Assay (EP), patch voltage clamp, NaV1.6; format: cell-based; conditions: HEK-293 cells, whole-cell patch clamp, inactivated state; arithmetic mean
NaV1.1 [3] = biological target: T1, NaV1.1; test: Electrophysiological Assay (EP), patch voltage clamp, NaV1.1; format: cell-based; conditions: HEK-293 cells, whole-cell patch clamp, inactivated state; arithmetic mean
Experimental: Sodium currents were measured using the patch clamp technique in the whole-cell configuration using either a PatchXpress automated voltage clamp or manually using an Axopatch 200B (Axon Instruments) or Model 2400 (A-M systems) amplifier.
In some studies, the external sodium was reduced by equimolar replacement with choline. […] All recordings were performed at ambient temperature in a bath chamber with a volume of 150 μL. Control sodium currents were measured in 0.5% DMSO. Controls and representative compounds of the invention were applied to the recording chamber through a 4-pinch or 8-pinch valve bath perfusion system manufactured by ALA Scientific Instruments.
Series resistance compensation was applied (60-80%). […] All statistics in this study are given as mean±SD.
The membrane potential was maintained at a voltage where inactivation of the channel is complete. The voltage is then stepped back to a very negative (Vhold=−150 mV) voltage for 20 ms and then a test pulse is applied to quantify the compound block. […] The percent decrease in sodium current following wash-on of compound was taken as the percent block of sodium channels.

NaV1.6 [4] = biological target: T2, NaV1.6; test: Sodium Influx Assay (Flux), NaV1.6; conditions: read-out: Flux NaV1.6 IC50; Trex HEK293 cells, ANG2 dye; arithmetic mean
NaV1.5 = NaV1.5 (Homo sapiens (Human), UniProt Q14524); test: Sodium Influx Assay (Flux), NaV1.5; conditions: read-out: Flux NaV1.5 IC50; Trex HEK293 cells, ANG2 dye; arithmetic mean
Chain of NaV1.5 (Q14524 other isoform, or with tags, fused parts or gaps): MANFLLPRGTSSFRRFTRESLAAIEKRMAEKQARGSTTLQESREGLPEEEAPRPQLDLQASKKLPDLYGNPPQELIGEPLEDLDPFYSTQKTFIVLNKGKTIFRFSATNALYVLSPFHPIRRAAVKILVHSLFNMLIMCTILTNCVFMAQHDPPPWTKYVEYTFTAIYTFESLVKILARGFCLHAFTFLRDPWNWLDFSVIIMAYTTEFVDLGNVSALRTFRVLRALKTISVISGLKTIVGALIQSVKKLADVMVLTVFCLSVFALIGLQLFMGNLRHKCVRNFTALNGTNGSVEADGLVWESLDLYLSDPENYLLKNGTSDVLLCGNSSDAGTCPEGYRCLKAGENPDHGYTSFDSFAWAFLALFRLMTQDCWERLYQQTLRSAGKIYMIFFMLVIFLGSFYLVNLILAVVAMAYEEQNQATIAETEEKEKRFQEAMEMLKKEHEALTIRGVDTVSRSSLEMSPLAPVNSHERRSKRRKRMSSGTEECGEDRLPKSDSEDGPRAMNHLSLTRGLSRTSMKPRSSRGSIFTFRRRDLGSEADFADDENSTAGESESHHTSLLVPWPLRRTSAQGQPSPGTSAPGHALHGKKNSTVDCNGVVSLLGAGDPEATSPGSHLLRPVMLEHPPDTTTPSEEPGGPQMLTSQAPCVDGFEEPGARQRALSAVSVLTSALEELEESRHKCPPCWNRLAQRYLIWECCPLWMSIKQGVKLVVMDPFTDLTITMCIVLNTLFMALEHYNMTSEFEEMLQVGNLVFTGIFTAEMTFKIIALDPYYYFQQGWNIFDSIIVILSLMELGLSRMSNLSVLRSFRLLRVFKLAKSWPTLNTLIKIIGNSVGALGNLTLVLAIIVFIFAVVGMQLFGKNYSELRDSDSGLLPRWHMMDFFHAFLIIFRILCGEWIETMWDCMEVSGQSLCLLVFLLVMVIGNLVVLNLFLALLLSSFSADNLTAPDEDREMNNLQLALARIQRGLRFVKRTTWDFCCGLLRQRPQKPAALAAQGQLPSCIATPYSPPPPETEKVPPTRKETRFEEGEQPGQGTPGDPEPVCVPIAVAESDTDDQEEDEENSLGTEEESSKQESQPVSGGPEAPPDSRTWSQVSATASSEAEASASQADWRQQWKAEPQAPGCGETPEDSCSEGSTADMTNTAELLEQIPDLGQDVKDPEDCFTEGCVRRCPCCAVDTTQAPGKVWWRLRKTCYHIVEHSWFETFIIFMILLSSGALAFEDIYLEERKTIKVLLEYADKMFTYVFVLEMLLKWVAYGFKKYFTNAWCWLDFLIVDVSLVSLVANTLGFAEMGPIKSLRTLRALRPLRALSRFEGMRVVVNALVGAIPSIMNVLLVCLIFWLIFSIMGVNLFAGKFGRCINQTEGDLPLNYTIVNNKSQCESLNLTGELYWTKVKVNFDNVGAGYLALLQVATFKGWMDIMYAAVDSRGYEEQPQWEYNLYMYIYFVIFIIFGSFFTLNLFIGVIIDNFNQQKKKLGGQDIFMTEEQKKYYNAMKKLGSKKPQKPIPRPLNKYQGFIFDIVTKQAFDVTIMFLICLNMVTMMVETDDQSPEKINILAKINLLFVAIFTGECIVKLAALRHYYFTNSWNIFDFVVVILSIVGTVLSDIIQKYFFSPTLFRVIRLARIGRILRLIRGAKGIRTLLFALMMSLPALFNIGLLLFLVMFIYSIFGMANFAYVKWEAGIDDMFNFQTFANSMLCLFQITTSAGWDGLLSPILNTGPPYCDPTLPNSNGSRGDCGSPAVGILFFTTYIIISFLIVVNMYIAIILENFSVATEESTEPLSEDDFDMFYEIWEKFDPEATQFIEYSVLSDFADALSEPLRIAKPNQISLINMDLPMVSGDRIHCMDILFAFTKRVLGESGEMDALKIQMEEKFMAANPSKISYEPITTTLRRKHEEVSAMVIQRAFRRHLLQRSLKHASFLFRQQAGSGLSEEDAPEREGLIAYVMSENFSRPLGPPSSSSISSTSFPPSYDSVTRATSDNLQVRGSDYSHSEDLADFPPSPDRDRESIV

T2 sequence (Q9UQD0 whole entry): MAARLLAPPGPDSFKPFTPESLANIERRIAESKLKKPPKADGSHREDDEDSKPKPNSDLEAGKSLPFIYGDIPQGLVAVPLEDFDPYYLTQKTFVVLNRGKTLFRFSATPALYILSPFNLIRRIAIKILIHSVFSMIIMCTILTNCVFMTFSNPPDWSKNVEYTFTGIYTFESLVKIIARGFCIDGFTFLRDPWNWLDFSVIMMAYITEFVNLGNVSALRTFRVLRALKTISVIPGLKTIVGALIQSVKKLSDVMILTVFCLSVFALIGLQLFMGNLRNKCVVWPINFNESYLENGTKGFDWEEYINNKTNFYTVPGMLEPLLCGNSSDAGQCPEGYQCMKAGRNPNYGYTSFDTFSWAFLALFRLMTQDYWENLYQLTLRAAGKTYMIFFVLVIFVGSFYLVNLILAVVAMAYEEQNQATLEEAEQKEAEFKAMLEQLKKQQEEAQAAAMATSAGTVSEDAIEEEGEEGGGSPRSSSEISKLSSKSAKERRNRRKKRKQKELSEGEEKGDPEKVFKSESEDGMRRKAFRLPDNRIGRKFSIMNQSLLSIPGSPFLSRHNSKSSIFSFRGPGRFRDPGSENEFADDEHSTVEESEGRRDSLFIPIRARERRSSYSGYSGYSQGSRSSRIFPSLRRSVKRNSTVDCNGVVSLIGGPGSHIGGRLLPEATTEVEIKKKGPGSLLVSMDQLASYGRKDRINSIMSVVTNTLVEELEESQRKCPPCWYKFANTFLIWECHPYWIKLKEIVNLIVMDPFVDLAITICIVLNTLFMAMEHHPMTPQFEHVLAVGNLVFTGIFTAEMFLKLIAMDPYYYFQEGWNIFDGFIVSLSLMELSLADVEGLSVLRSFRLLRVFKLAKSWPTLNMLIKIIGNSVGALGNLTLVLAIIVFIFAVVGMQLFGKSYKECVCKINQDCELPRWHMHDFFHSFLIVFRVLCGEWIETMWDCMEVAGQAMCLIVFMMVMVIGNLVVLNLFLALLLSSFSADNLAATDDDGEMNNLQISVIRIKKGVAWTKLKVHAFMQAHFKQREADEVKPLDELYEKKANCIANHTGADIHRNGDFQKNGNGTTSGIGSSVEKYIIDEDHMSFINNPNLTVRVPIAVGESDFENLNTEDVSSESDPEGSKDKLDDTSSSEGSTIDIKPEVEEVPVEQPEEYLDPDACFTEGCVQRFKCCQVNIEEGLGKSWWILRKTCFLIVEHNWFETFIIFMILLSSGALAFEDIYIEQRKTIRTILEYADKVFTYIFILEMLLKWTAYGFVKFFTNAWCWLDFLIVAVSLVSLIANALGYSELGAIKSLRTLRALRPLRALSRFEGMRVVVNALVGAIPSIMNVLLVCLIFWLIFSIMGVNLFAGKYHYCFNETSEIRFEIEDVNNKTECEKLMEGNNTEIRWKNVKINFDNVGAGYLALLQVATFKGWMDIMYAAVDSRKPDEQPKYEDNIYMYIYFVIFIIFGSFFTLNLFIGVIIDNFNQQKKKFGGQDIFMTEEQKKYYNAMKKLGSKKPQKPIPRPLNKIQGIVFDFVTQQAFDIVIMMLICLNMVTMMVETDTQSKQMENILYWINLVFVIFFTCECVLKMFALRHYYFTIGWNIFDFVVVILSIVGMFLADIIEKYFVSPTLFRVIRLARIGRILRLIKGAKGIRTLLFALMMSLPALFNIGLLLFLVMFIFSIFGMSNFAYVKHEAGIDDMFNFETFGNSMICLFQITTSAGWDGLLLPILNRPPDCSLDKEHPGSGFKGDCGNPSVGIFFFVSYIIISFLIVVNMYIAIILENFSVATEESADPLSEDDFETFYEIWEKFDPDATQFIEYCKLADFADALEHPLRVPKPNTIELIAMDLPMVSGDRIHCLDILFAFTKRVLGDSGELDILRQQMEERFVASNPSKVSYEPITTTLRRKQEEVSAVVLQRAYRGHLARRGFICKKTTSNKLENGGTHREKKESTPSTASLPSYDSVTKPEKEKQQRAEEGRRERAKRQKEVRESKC

Row | Structure (SMILES) | IC50 (NaV1.1 [1]) [µM] | IC50 (NaV1.6 [2]) [µM] | IC50 (NaV1.1 [3]) [µM] | IC50 (NaV1.6 [4]) [µM] | IC50 (NaV1.5) [µM]
1 | O=S(=O)(Nc1cscn1)c1c(F)cc(OC2CCN(Cc3ccccc3)CC2)c(Cl)c1F [Example 105, 4-((1-benzylpiperidin-4-yl)oxy)-3-chloro-2,6-difluoro-N-(thiazol-4-yl)benzenesulfonamide formate] | 27.6 | 0.151 | > 10 | 0.268 | 17.6
2 | Cc1c(OC2CCN(Cc3ccccc3)CC2)cc(F)c(S(=O)(=O)Nc2cscn2)c1F [Example 106, 4-((1-benzylpiperidin-4-yl)oxy)-2,6-difluoro-3-methyl-N-(thiazol-4-yl)benzenesulfonamide formate] | 23.2 | 0.034 | > 10 | 0.099 | 20.6
3 | Cc1cccc(CN2CC[C@H](N(C)c3cc(F)c(S(=O)(=O)Nc4cscn4)cc3Cl)C2)n1 [Example 192, (S)-5-chloro-2-fluoro-4-(methyl(1-((6-methylpyridin-2-yl)methyl)pyrrolidin-3-yl)amino)-N-(thiazol-4-yl)benzene-sulfonamide] | > 30 | 0.37 | > 10 | 0.857 | > 30
4 | CN(c1cc(F)c(S(=O)(=O)Nc2cscn2)cc1Cl)[C@H]1CCN(Cc2cccc(C(F)F)c2)C1 [Example 193, (S)-5-chloro-4-((1-(3-(difluoromethyl)benzyl)-pyrrolidin-3-yl)(methyl)amino)-2-fluoro-N-(thiazol-4-yl)benzene-sulfonamide] | 3.57 | 0.33 | > 10 | 0.774 | 9.02
5 | COc1ccccc1CN1CC[C@H](N(C)c2cc(F)c(S(=O)(=O)Nc3cscn3)cc2Cl)C1 [Example 206, (S)-5-chloro-2-fluoro-4-((1-(2-methoxybenzyl)pyrrolidin-3-yl)(methyl)amino)-N-(thiazol-4-yl)benzenesulfonamide] | 22.5 | 0.462 | > 10 | 0.532 | > 30
6 | C[C@@H](c1ccccc1)N1CCC(Oc2ccc(S(=O)(=O)Nc3ncns3)cc2Cl)CC1 [Example 221, (S)-3-chloro-4-((1-(1-phenylethyl)piperidin-4-yl)oxy)-N-(1,2,4-thiadiazol-5-yl)benzenesulfonamide 2,2,2-trifluoroacetate] | 10.8 | 0.098 | > 10 | 0.127 | > 30
7 | C[C@H](c1ccccc1)N1CCC(Oc2cc(F)c(S(=O)(=O)Nc3cscn3)cc2Cl)CC1 [Example 222, (R)-5-chloro-2-fluoro-4-((1-(1-phenylethyl)piperidin-4-yl)oxy)-N-(thiazol-4-yl)benzenesulfonamide 2,2,2-trifluoroacetate] | 27.9 | 0.278 | > 10 | 0.959 | 19.4
8 | C[C@@]1(Nc2ccc(S(=O)(=O)Nc3cscn3)cc2Cl)CCN(Cc2ccccc2)C1 [Example 225, (R)-4-((1-benzyl-3-methylpyrrolidin-3-yl)amino)-3-chloro-N-(thiazol-4-yl)benzenesulfonamide formate] | 5.45 | 5.31 | > 10 | 3.9 | 5.55
9 | C[C@]1(Nc2ccc(S(=O)(=O)Nc3cscn3)cc2Cl)CCN(Cc2ccccc2)C1 [Example 226, (S)-4-((1-benzyl-3-methylpyrrolidin-3-yl)amino)-3-chloro-N-(thiazol-4-yl)benzenesulfonamide formate] | 11.5 | 3.08 | > 10 | 2.43 | 9.04
10 | CC[C@@H](c1ccccc1)N1CC[C@H](N(C)c2cc(F)c(S(=O)(=O)Nc3cscn3)cc2Cl)C1 [Example 242, 5-chloro-2-fluoro-4-(methyl((S)-1-((S)-1-phenylpropyl)pyrrolidin-3-yl)amino)-N-(thiazol-4-yl)benzenesulfonamide] | 5.38 | 0.668 | > 10 | 0.65 | 9.96
11 | CN(c1cc(F)c(S(=O)(=O)Nc2cscn2)cc1Cl)[C@H]1CCN([C@@H]2CCc3ccccc32)C1 [Example 246, 5-chloro-4-(((S)-1-((R)-2,3-dihydro-1H-inden-1-yl)pyrrolidin-3-yl)(methyl)amino)-2-fluoro-N-(thiazol-4-yl)benzenesulfonamide 2,2,2-trifluoroacetate] | 8.51 | 1.03 | > 10 | 0.629 | 18.7
12 | CN(c1cc(F)c(S(=O)(=O)Nc2cscn2)cc1Cl)[C@H]1CCN([C@H]2CCc3ccccc32)C1 [Example 249, 5-chloro-4-(((S)-1-((S)-2,3-dihydro-1H-inden-1-yl)pyrrolidin-3-yl)(methyl)amino)-2-fluoro-N-(thiazol-4-yl)benzenesulfonamide 2,2,2-trifluoroacetate] | 11.2 | 0.11 | > 10 | 0.285 | 17.4
13 | C[C@H](c1ccccc1)N1CC[C@H](N(C)c2ccc(S(=O)(=O)Nc3cscn3)cc2Cl)C1 [Example 251, 3-chloro-4-(methyl((S)-1-((R)-1-phenylethyl)pyrrolidin-3-yl)amino)-N-(thiazol-4-yl)benzenesulfonamide 2,2,2-trifluoroacetate] | 7.45 | 0.412 | > 10 | 1.51 | 7.32
14 | CN(c1ccc(S(=O)(=O)Nc2cscn2)cc1Cl)[C@H]1CCN(Cc2cccc(C(F)F)c2)C1 [Example 253, (S)-3-chloro-4-((1-(3-(difluoromethyl)benzyl)pyrrolidin-3-yl)(methyl)amino)-N-(thiazol-4-yl)benzenesulfonamide formate] | 2.67 | 0.491 | 4.76 | 0.756 | 2.52
15 | CN(c1cc(F)c(S(=O)(=O)Nc2cscn2)cc1Cl)[C@H]1CCN(C(C)(C)c2ccccc2)C1 [Example 257, (S)-5-chloro-2-fluoro-4-(methyl(1-(2-phenylpropan-2-yl)pyrrolidin-3-yl)amino)-N-(thiazol-4-yl)benzenesulfonamide formate] | 10.3 | 0.17 | > 10 | 0.701 | 10.6
16 | CN(c1cc(F)c(S(=O)(=O)Nc2cscn2)cc1Cl)[C@H]1CCN(C2(c3ccccc3)CC2)C1 [Example 259, (S)-5-chloro-2-fluoro-4-(methyl(1-(1-phenylcyclopropyl)pyrrolidin-3-yl)amino)-N-(thiazol-4-yl)benzenesulfonamide 2,2,2-trifluoroacetate] | 3.77 | 0.44 | 3.52 | 1.58 | 5.81
17 | CN(c1cc(F)c(S(=O)(=O)Nc2cccc(F)n2)cc1Cl)[C@H]1CCN(C(C)(C)c2ccccc2)C1 [Example 260, (S)-5-chloro-2-fluoro-N-(6-fluoropyridin-2-yl)-4-(methyl(1-(2-phenylpropan-2-yl)pyrrolidin-3-yl)amino)benzenesulfonamide 2,2,2-trifluoroacetate] | 7.35 | 0.842 | 9.64 | 1.68 | 10.1
